Results from ChEMBL document CHEMBL3044964, “Synthesis of novel imidazo[2,1-b][1,3,4]thiadiazoles appended to sydnone as anticancer agents” (Med Chem Res, 2013).
Values after ≈ are worked out from the molar mass of the structure shown. Active and inactive are the calls of the source. The calls are words filed in the database; no cut-off is given here.

Key:
Escherichia coli [1] = assay: Toxicity in wild type Escherichia coli AB1157 assessed as growth inhibition at 125 ug after 24 hr by agar well diffusion method; type: organism-based; conditions: in vivo
Escherichia coli [2] = assay: Toxicity in wild type Escherichia coli AB1157 assessed as growth inhibition at 250 ug after 24 hr by agar well diffusion method; type: organism-based; conditions: in vivo
Escherichia coli [3] = assay: Toxicity in wild type Escherichia coli AB1157 assessed as growth inhibition at 1000 ug after 24 hr by agar well diffusion method; type: organism-based; conditions: in vivo
Escherichia coli [4] = assay: Toxicity in wild type Escherichia coli AB1157 assessed as growth inhibition at 2000 ug after 24 hr by agar well diffusion method; type: organism-based; conditions: in vivo
Escherichia coli [5] = assay: Toxicity in wild type Escherichia coli AB1157 assessed as growth inhibition after 24 hr by agar well diffusion method; type: organism-based; conditions: in vivo
HT-29 = assay: Cytotoxicity against Homo sapiens (human) HT-29 cells by SRB assay; type: functional
Escherichia coli [6] = assay: Toxicity in wild type Escherichia coli AB1157 assessed as growth inhibition at 500 ug after 24 hr by agar well diffusion method; type: organism-based; conditions: in vivo
Escherichia coli [7] = assay: Induction of Escherichia coli DNA cleavage at 25 mg after 2 hr by agarose gel electrophoresis

Row | Compound | growth inhibition (GI) (Escherichia coli [1]) | diameter of the inhibition zone (DIZ) (Escherichia coli [2]) [cm] | diameter of the inhibition zone (DIZ) (Escherichia coli [3]) [cm] | diameter of the inhibition zone (DIZ) (Escherichia coli [4]) [cm] | MIC (Escherichia coli [5]) [mg] | GI50 (HT-29) [µg/mL] | LC50 (HT-29) [µg/mL] | TGI (HT-29) [µg/mL] | diameter of the inhibition zone (DIZ) (Escherichia coli [6]) [cm] | Activity (Escherichia coli [7])
1 | COc1ccc(-n2n[o+]c([O-])c2-c2nn3cc(-c4cc5cc(Cl)ccc5oc4=O)nc3s2)cc1 | Non-toxic | 0 | 0.5 | 0.8 | 1 | 3.68 (≈ 7.45 µM) | > 70 | < 30 | 0 | –
2 | Cc1ccc(-n2n[o+]c([O-])c2-c2nn3cc(-c4cc5cc(Cl)ccc5oc4=O)nc3s2)cc1 | Non-toxic | 0 | 0 | 0 | > 2 | 7.9 (≈ 16.5 µM) | > 80 | > 40 | 0 | Active
3 | COc1ccc(-n2n[o+]c([O-])c2-c2nn3cc(-c4cc5cc(Br)ccc5oc4=O)nc3s2)cc1 | Non-toxic | 0 | 0.5 | 0.8 | 1 | 3.04 (≈ 5.65 µM) | > 80 | < 30 | 0 | –
4 | Cc1ccc(-n2n[o+]c([O-])c2-c2nn3cc(-c4cc5ccccc5oc4=O)nc3s2)cc1 | Non-toxic | 0 | 0 | 0 | > 2 | 4.23 (≈ 9.54 µM) | > 80 | < 30 | 0 | –
5 | O=c1oc2ccccc2cc1-c1cn2nc(-c3c([O-])[o+]nn3-c3ccc(Cl)cc3)sc2n1 | Non-toxic | 0 | 0 | 0 | > 2 | 4 (≈ 8.62 µM) | > 80 | < 30 | 0 | Active
6 | O=c1oc2ccc(Br)cc2cc1-c1cn2nc(-c3c([O-])[o+]nn3-c3ccc(Cl)cc3)sc2n1 | Non-toxic | 0 | 0 | 0 | > 2 | 5.25 (≈ 9.67 µM) | > 70 | > 40 | 0 | –
7 | O=c1oc2ccc(Cl)cc2cc1-c1cn2nc(-c3c([O-])[o+]nn3-c3ccccc3)sc2n1 | Non-toxic | 0 | 0 | 0 | > 2 | 7.7 (≈ 16.6 µM) | > 80 | > 40 | 0 | –
8 | O=c1oc2ccc(Cl)cc2cc1-c1cn2nc(-c3c([O-])[o+]nn3-c3ccc(Cl)cc3)sc2n1 | Non-toxic | 0 | 0 | 0 | > 2 | 8 (≈ 16.1 µM) | > 80 | > 40 | 0 | Active
9 | O=c1oc2ccccc2cc1-c1cn2nc(-c3c([O-])[o+]nn3-c3ccccc3)sc2n1 | Non-toxic | 0 | 0 | 0 | > 2 | 6.3 (≈ 14.7 µM) | > 70 | > 30 | 0 | –
10 | STANNOUS CHLORIDE | Non-toxic | 0.3 | 0.8 | 1.5 | 0.25 | – | – | – | 0.5 | –
11 | COc1ccc(-n2n[o+]c([O-])c2-c2nn3cc(-c4cc5ccccc5oc4=O)nc3s2)cc1 | Non-toxic | 0 | 0.5 | 0.8 | 1 | 3.14 (≈ 6.83 µM) | > 70 | < 30 | 0 | –
12 | Cc1ccc(-n2n[o+]c([O-])c2-c2nn3cc(-c4cc5cc(Br)ccc5oc4=O)nc3s2)cc1 | Non-toxic | 0 | 0 | 0 | > 2 | 6.1 (≈ 11.7 µM) | > 70 | > 30 | 0 | –
13 | O=c1oc2ccc(Br)cc2cc1-c1cn2nc(-c3c([O-])[o+]nn3-c3ccccc3)sc2n1 | Non-toxic | 0 | 0 | 0 | > 2 | 5.6 (≈ 11 µM) | > 70 | > 30 | 0 | –
